# Assay results reported in US10106501B2, “Nuclear receptor modulators” (AbbVie Inc., priority 2015, dated 2018).
# Target: T1, chimeric human RORγ-Gal4 receptor (Homo sapiens, UniProt P51449)
# T1 sequence (P51449 269-508 limits assumed): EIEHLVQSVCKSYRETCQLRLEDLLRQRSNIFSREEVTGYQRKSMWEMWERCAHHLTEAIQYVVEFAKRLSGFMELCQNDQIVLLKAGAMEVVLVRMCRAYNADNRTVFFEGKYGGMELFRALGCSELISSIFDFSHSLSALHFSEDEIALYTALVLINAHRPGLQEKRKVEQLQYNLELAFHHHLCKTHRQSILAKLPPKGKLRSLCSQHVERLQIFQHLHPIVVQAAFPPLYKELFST
# Assay: transient transactivation assay (RORγ-Gal4 luciferase reporter)
# Type: cell-based
# Conditions: Cos-7 cells transfected with RORγ-Gal4 and 5Gal4 pGL3 TK Luc reporter; overnight incubation; T0901317 at 10^-5 M as reference; read-out: IC50
row,IC50 [nM],SMILES
1,< 100,"Cc1cc(OC(F)(F)F)cc2ccn(C(=O)c3c(Cl)ccc(C(=O)N4CCC(CC(=O)O)CC4)c3Cl)c12 [EL, 2-(1-(2,4-dichloro-3-(7-methyl-5-(trifluoromethoxy)-1H-indole-1-carbonyl)benzoyl)piperidin-4-yl)acetic acid]"
2,< 100,Cc1cc(OC(F)(F)F)cc2ccn(C(=O)c3c(Cl)ccc(C(=O)N4CC5(CC(CC(=O)O)C5)C4)c3Cl)c12 [EL-1]
3,< 100,"Cc1cc(OC(F)F)cc2ccn(Cc3c(Cl)ccc(C(=O)N4CCC(CC(=O)O)CC4)c3Cl)c12 [EM, 2-(1-(2,4-dichloro-3-((5-(difluoromethoxy)-7-methyl-1H-indol-1-yl)methyl)benzoyl)piperidin-4-yl)acetic acid]"
4,< 100,"O=C(O)CC1CCN(C(=O)c2ccc(Cl)c(Cn3ccc4cc(C5CC5)cc(F)c43)c2Cl)CC1 [EN, 2-(1-(2,4-dichloro-3-((5-cyclopropyl-7-fluoro-1H-indol-1-yl)methyl)benzoyl)piperidin-4-yl)acetic acid]"
5,< 100,"O=C(O)CC1CCN(C(=O)c2ccc(Cl)c(C(=O)n3ccc4cc(C5CC5)cc(F)c43)c2Cl)CC1 [EO, 2-(1-(2,4-dichloro-3-(5-cyclopropyl-7-fluoro-1H-indole-1-carbonyl)benzoyl)piperidin-4-yl)acetic acid]"
6,< 100,"O=C(O)CC1CCN(C(=O)c2ccc(Cl)c(Cn3ccc4cc(C(F)(F)F)cc(F)c43)c2Cl)CC1 [EP, 2-(1-(2,4-dichloro-3-((7-fluoro-5-(trifluoromethyl)-1H-indol-1-yl)methyl)benzoyl)piperidin-4-yl)acetic acid]"
7,< 100,"Cc1cn(C(=O)c2c(Cl)ncc(C(=O)N3CCC(CC(=O)O)CC3)c2Cl)c2c(C)cc(C(F)(F)F)cc12 [EQ, 2-(1-(4,6-dichloro-5-(3,7-dimethyl-5-(trifluoromethyl)-1H-indole-1-carbonyl)nicotinoyl)piperidin-4-yl)acetic acid]"
8,< 100,"Cc1cn(Cc2c(Cl)ncc(C(=O)N3CCC(CC(=O)O)CC3)c2Cl)c2c(C)cc(C(F)(F)F)cc12 [ER, 2-(1-(4,6-dichloro-5-((3,7-dimethyl-5-(trifluoromethyl)-1H-indol-1-yl)methyl)nicotinoyl)piperidin-4-yl)acetic acid]"
9,< 100,"Cc1cc(C(F)(F)F)cc2ccn(C(=O)c3c(Cl)ccc(C(=O)N4CCC(CC(=O)O)CC4)c3Cl)c12 [ES, 2-(1-(2,4-dichloro-3-(7-methyl-5-(trifluoromethyl)-1H-indole-1-carbonyl)benzoyl)piperidin-4-yl)acetic acid]"
10,< 100,"Cc1cn(Cc2c(Cl)ccc(C(=O)N3CCOCC3)c2Cl)c2c(C)nc(C(F)(F)F)cc12 [ET, (2,4-dichloro-3-((3,7-dimethyl-5-(trifluoromethyl)-1H-pyrrolo[2,3-c]pyridin-1-yl)methyl)phenyl)(morpholino)methanone]"
11,< 100,"Cc1cn(C(=O)c2c(Cl)ccc(C(=O)N3CCC(CC(=O)O)CC3)c2Cl)c2c(C)nc(C(F)(F)F)cc12 [EV, 2-(1-(2,4-dichloro-3-(3,7-dimethyl-5-(trifluoromethyl)-1H-pyrrolo[2,3-c]pyridine-1-carbonyl)benzoyl)piperidin-4-yl)acetic acid]"
12,< 100,"Cc1c(C#N)ccc2c1cc(Cc1c(Cl)ccc(C(=O)N3CCOCC3)c1Cl)n2C [EX, 2-(2,6-dichloro-3-(morpholine-4-carbonyl)benzyl)-1,4-dimethyl-1H-indole-5-carbonitrile]"
13,< 100,"Cc1c(C#N)ccc2c1cc(Cc1c(Cl)ccc(C(=O)N3CCC(CC(=O)O)CC3)c1Cl)n2C [EY, 2-(1-(2,4-dichloro-3-((5-cyano-1,4-dimethyl-1H-indol-2-yl)methyl)benzoyl)piperidin-4-yl)acetic acid]"
14,< 100,"Cn1c(Cc2c(Cl)ccc(C(=O)N3CCOCC3)c2Cl)cc2c(Cl)cc(Cl)cc21 [EZ, (2,4-dichloro-3-((4,6-dichloro-1-methyl-1H-indol-2-yl)methyl)phenyl)(morpholino)methanone]"
15,< 100,"Cc1cc(C(F)(F)F)cc2c1cc(Cc1c(Cl)ccc(C(=O)N3CCN(C4COC4)CC3)c1Cl)n2C [Example A1, (2,4-dichloro-3-((1,4-dimethyl-6-(trifluoromethyl)-1H-indol-2-yl)methyl)phenyl)(4-(oxetan-3-yl)piperazin-1-yl)methanone]"
16,< 100,Cc1cc(C(F)(F)F)cc2c1cc(Cc1c(Cl)ccc(C(=O)N3CCC(S(C)(=O)=O)CC3)c1Cl)n2C [Example A1-11]
17,100 to 500,"Cn1c(Cc2c(Cl)ccc(C(=O)N3CCOCC3)c2Cl)cc2cc(C#N)ccc21 [Example AB, 2-(2,6-dichloro-3-(morpholine-4-carbonyl)benzyl)-1-methyl-1H-indole-5-carbonitrile]"
18,100 to 500,"Cn1c(Cc2c(Cl)ccc(C(=O)N3CCOCC3)c2Cl)cc2ccc(C#N)cc21 [Example AC, 2-(2,6-dichloro-3-(morpholine-4-carbonyl)benzyl)-1-methyl-1H-indole-6-carbonitrile]"
19,100 to 500,"Cc1cc(C#N)cc2c1cc(C(=O)c1c(Cl)ccc(C(=O)N3CCOCC3)c1Cl)n2C [Example AD, 2-(2,6-dichloro-3-(morpholine-4-carbonyl)benzoyl)-1,4-dimethyl-1H-indole-6-carbonitrile]"
20,100 to 500,"Cc1ccc(C(=O)N2CCOCC2)c(C)c1Cc1cc2c(C)cc(C#N)cc2n1C [Example AE, 2-(2,6-dimethyl-3-(morpholine-4-carbonyl)benzyl)-1,4-dimethyl-1H-indole-6-carbonitrile]"
21,500 to 1000,"Cc1cc(C#N)cc2c1cc(Cc1c(Cl)ccc(O[C@H]3CC[C@@H](C(=O)O)CC3)c1Cl)n2C [Example AF1, cis-4-(2,4-dichloro-3-((6-cyano-1,4-dimethyl-1H-indol-2-yl)methyl)phenoxy)cyclohexanecarboxylic acid]"
22,100 to 500,"Cc1cc(C#N)cc2c1cc(Cc1c(Cl)ccc(O[C@H]3CC[C@H](C(=O)O)CC3)c1Cl)n2C [Example AF, trans-4-(2,4-dichloro-3-((6-cyano-1,4-dimethyl-1H-indol-2-yl)methyl)phenoxy)cyclohexanecarboxylic acid]"
23,500 to 1000,"Cc1cc(C#N)cc2c1cc(Cc1c(Cl)ccc(O[C@H]3C[C@@H](C(=O)O)C3)c1Cl)n2C [Example AH1, cis-3-(2,4-dichloro-3-((6-cyano-1,4-dimethyl-1H-indol-2-yl)methyl)phenoxy)cyclobutanecarboxylic acid]"
24,500 to 1000,"Cc1cc(C#N)cc2c1cc(Cc1c(Cl)ccc(O[C@H]3C[C@H](C(=O)O)C3)c1Cl)n2C [Example AH, trans-3-(2,4-dichloro-3-((6-cyano-1,4-dimethyl-1H-indol-2-yl)methyl)phenoxy)cyclobutanecarboxylic acid]"
25,1000 to 10000,"Cc1cc(C#N)cc2c1cc(Cc1c(Cl)ccc(C(=O)N3CCC(OCC(=O)O)CC3)c1Cl)n2C [Example AM, 2-((1-(2,4-dichloro-3-((6-cyano-1,4-dimethyl-1H-indol-2-yl)methyl)benzoyl)piperidin-4-yl)oxy)acetic acid]"
26,< 100,"Cc1cc(C#N)cc2c1cc(C(=O)c1c(Cl)ccc(C(=O)N3CCC(O)CC3)c1Cl)n2C [Example AN, 2-(2,6-dichloro-3-(4-hydroxypiperidine-1-carbonyl)benzoyl)-1,4-dimethyl-1H-indole-6-carbonitrile]"
27,1000 to 10000,"Cc1cc(C(F)(F)F)cc2c1cc(C(=O)c1c(Cl)ccc(CO)c1Cl)n2C [Example AR, (2,6-dichloro-3-(hydroxymethyl)phenyl)(1,4-dimethyl-6-(trifluoromethyl)-1H-indol-2-yl)methanone]"
